The source of these data is ChEMBL document CHEMBL5335789, “Tea-break with epigallocatechin gallate derivatives - Powerful polyphenols of great potential for medicine” (Eur J Med Chem, 2023).

The test system of test [1] is U-937. Nature of the test: Antiproliferative activity against human U-937 cells assessed as cell growth inhibition measured after 72 hrs. The format is functional, cell-based. The settings on record: U-937, 72 h.
The subject of test [2] is U-937. The test is described as follows: Antiproliferative activity against human U-937 cells measured upto 72 hrs. Type of test: functional, cell-based. The settings on record: U-937, 72 h.
The subject of test [3] is MDA-MB-231. Nature of the test: Anticancer activity against human MDA-MB-231 cells assessed as reduction in cell viability measured after 72 hrs by MTT assay. The format is functional. (Tetrazolium dyes change colour on reduction, which living cells bring about.)
The subject of test [4] is U-266. Nature of the test: Anticancer activity against human U-266 cells assessed as inhibition of cell growth. Type of test: functional, cell-based.
The nature of test [5]: Inhibition of Streptococcus sobrinus glycosyl transferase.
In test [6] the test system is NCI-H292. Nature of the test: Antiproliferative activity against human NCI-H292 cells expressing wild type EGFR assessed as reduction in cell viability incubated for 48 hrs by MTT assay. Type of test: functional, cell-based. The following applies: NCI-H292, 48 h.
Test [7] in a line: Antiproliferative activity against human NCI-H1781 cells expressing wild type EGFR assessed as reduction in cell viability incubated for 48 hrs by MTT assay. Type of test: functional, cell-based. The settings on record: NCI-H1781, 48 h.
In test [8] the test system is NCI-H441. Nature of the test: Antiproliferative activity against human NCI-H441 cells expressing wild type EGFR assessed as reduction in cell viability incubated for 48 hrs by MTT assay. The format is functional, cell-based. The following applies: NCI-H441, 48 h.
Test [9] has as its system A549. The test is described as follows: Antiproliferative activity against human A549 cells expressing wild type EGFR assessed as reduction in cell viability incubated for 48 hrs by MTT assay. Type of test: functional, cell-based. The following applies: A549, 48 h.
Test [10] concerns MCF7. Nature of the test: Cytotoxicity against human MCF7 cells assessed as reduction in cell viability incubated for 48 hrs by MTT assay. The format is functional, cell-based. The following applies: MCF7, 48 h.
For test [11], the system named is A549. Nature of the test: Cytotoxicity against human A549 cells assessed as reduction in cell viability incubated for 48 hrs by MTT assay. The format is functional, cell-based. The settings on record: A549, 48 h.
For test [12], the system named is SMMC-7721. Nature of the test: Cytotoxicity against human SMMC-7721 cells assessed as reduction in cell viability incubated for 48 hrs by MTT assay. Type of test: functional, cell-based. The settings on record: SMMC-7721, 48 h.
The subject of test [13] is HL-60. Nature of the test: Cytotoxicity against human HL-60 cells assessed as reduction in cell growth incubated for 48 hrs by MTT assay. The format is functional, cell-based. The following applies: HL-60, 48 h.
Test [14] relates to BEAS-2B. Nature of the test: Cytotoxicity against human BEAS-2B assessed as reduction in cell viability incubated for 72 hrs by MTT assay. The format is functional, cell-based.
Test [15] has as its system MCF7. Nature of the test: Antiproliferative activity against human MCF7 cells assessed as reduction in cell viability incubated for 72 hrs by MTT assay. Type of test: functional, cell-based. The settings on record: MCF7, 72 h.
The test system of test [16] is U-266. Nature of the test: Antiproliferative activity against human U-266 cells assessed as reduction in cell viability incubated for 96 hrs by ATPlite assay. Type of test: functional, cell-based. The settings on record: U-266, 96 h. (Cellular ATP, detected with luciferase, serves as a proxy for viable cell number.)
Test [17] relates to MDA-MB-231. Nature of the test: Cytotoxicity against human MDA-MB-231 cells assessed as cell growth inhibition incubated for 48 hrs by SRB assay. Type of test: functional, cell-based. The following applies: MDA-MB-231, 48 h. Background: Sulforhodamine B stains cellular protein and so reports cell mass.
Test [18] has as its system KB. The test is described as follows: Antitumor activity against human KB cells assessed as inhibition of cell growth measured upto 96 hrs in presence of thymidine by Cell titer blue assay. Also noted: scale not given: the % may be the effect or the level left. Type of test: functional.
The species entered for test [19] is Homo sapiens. The test is described as follows: Inhibition of PI3K/AKT/NF-kappaB (unknown origin) at 30 uM relative to control.
The test system of test [20] is MDA-MB-231. Nature of the test: Inhibition of cell invasion of human MDA-MB-231 cells at 10 uM incubated for 24 hrs by crystal violet staining based analysis. The format is functional. Details: scale not given: the % may be the effect or the level left.
For test [21], the system named is MDA-MB-231. The test is described as follows: Inhibition of cell adhesion in human MDA-MB-231 cells assessed as reduction in cell adhesion at 10 uM relative to control. The format is functional. Details: scale not given: the % may be the effect or the level left.
Test [22] can be described thus: Inhibition of ERK (unknown origin) at 100 uM by western blot assay relative to control. The following applies: Homo sapiens.
In test [23] the test system is MDA-MB-231. Nature of the test: Inhibition of cell migration in human MDA-MB-231 cells measured upto 48 hrs by transwell chamber assay relative to control. Type of test: functional. Details: scale not given: the % may be the effect or the level left.
Test [24] addresses MAP kinase p38 (Homo sapiens) (UniProt O15264+Q15759+Q16539+P53778). Nature of the test: Inhibition of p38-MAPK (unknown origin) at 30 uM relative to control. Type of test: protein assay.

What is called IC50 is the concentration needed to halve the response being measured. Consider `O=C(Nc1c(-c2ccc(O)c(O)c2)oc2ccccc2c1=O)c1ccc(O)c(O)c1`, for which the results for the half-maximal inhibitory concentration (IC50) in test [1] and in [2] were 37 µM and 0.38 µM, respectively.
On to `CC(=O)Oc1cc(OC(C)=O)c2c(c1)O[C@H](c1cc(OC(C)=O)c(OC(C)=O)c(OC(C)=O)c1)[C@H](OC(=O)c1cccc(F)c1)C2`, for which, in [3], the Activity worked out at 70%.
As for `COc1ccc2c(c1)O[C@H](c1cc(OC)c(O)c(OC)c1)[C@H](OC(=O)c1cc(O)c(O)c(O)c1)C2`, the IC50 in [4] is 0.64 µM.
Regarding `O=c1c(O)cc([C@H]2Oc3cc(O)cc(O)c3C[C@H]2O)cc2cc(O)c(O)c(O)c12`, inhibition in test [5] was half-maximal at 14 µM (IC50).
`O=C(O[C@@H]1Cc2c(O)cc(O)cc2O[C@@H]1c1cc(O)c(=O)c2c(O)c(O)c(O)cc2c1)c1cc(O)c(O)c(O)c1` registered a concentration for half-maximal inhibition (IC50) in test [5] of 11 µM.
As to `O=C(O[C@@H]1Cc2c(O)cc(O)cc2O[C@@H]1c1cc(O)c(O)c(O)c1)c1cc(O)c(OCc2cn([C@H]3O[C@H](CO)[C@@H](O)[C@H](O)[C@H]3O)nn2)c(O)c1`, the half-inhibitory concentration (IC50) in [6], in [7], in test [8] and in [9] was 30 µM in each case.
Turning to `CCCC(=O)OC[C@H]1O[C@@H](Oc2c(O)cc(C(=O)O[C@@H]3Cc4c(O)cc(O)cc4O[C@@H]3c3cc(O)c(O)c(O)c3)cc2O)[C@H](OC(=O)CCC)[C@@H](OC(=O)CCC)[C@H]1OC(=O)CCC`, the IC50 in [10] was 22.9 µM; in test [11], 22.9 µM; in test [12] it was 22.9 µM; in test [13], 22.9 µM; in [14], 40 µM.
Turning to `CCOc1cccc(C(=O)O[C@H]2COc3cc(OC)cc(OC)c3C2)c1`, the half-maximal inhibitory concentration (IC50) in test [15] worked out at 8.19 µM.
On to `O=C(Nc1cccc(NC(=O)c2cccc(O)c2O)c1)c1cccc(O)c1O`, for which the IC50 in [1] was 1.7 µM; in test [2] it was 0.67 µM.
Take `[N-]=[N+]=NC[C@@H]1O[C@H](c2c(O)cc(O)c3c2O[C@H](c2cc(O)c(O)c(O)c2)[C@H](OC(=O)c2cc(O)c(O)c(O)c2)C3)[C@H](O)[C@@H](O)[C@@H]1O`: the IC50 in test [16] was determined as 15 µM.
With `O=C(Oc1ccc(OC(=O)c2cc(O)c(O)c(O)c2)c2ccccc12)c1cc(O)c(O)c(O)c1`, the IC50 in test [17] worked out at 104 µM.
As for `COc1cc([C@H]2Oc3cccc(OC)c3C[C@H]2OC(=O)c2cc(O)c(O)c(O)c2)cc(O)c1O`, the IC50 in test [4] came out at 0.8 µM.
Regarding `O=C(Oc1cc(O)c2ccccc2c1)c1cc(O)c(O)c(O)c1`, the IC50 in test [17] was 41 µM.
For orientation: inhibition means how much of the control response was suppressed. For the compound `O=C(O[C@@H]1Cc2c(O)cc(O)cc2O[C@@H]1c1cc(O)c(O)c(O)c1)c1cc(O)c(O)c(O)c1` [EPIGALOCATECHIN GALLATE], the Activity in test [18] is 70%; in test [20], 56%; in test [21] it was 40%; in [23], 40%. In addition, the figures for the IC50 in [5] and in test [17] were 89.5 µM and 149 µM, respectively. The figures for the inhibition in [19], in test [22] and in test [24] were 25%, 25% and 45%, respectively.
In the case of `COc1cc(OC)c2c(c1)OC(c1ccccc1)[C@H](OC(=O)c1ccc(OC(C)=O)c(CC=C(C)C)c1)C2` (some centres not stated), in [15], the half-maximal inhibitory concentration (IC50) was 3.99 µM.
